Experimental findings from patent US20040014637A1, “Mechanism for the inactivation of insulin receptor and uses in the treatment of type II diabetes” (McGill University, priority 1998, published 2004) are described below.

For one test, the target named is T1, insulin receptor (Rattus norvegicus, UniProt P15127).
T1 construct: from tissue; host or cells: rat liver; endosome (EN) and plasma membrane (PM) fractions
Put plainly: 125I-insulin binding after preincubating endosomes (ENs containing IR) with nucleotides. The following applies: for 125I-insulin specific binding, WGA-purified endosomes / 125I-insulin specific binding, solubilized endosomes: preincubation 37° C. 15 min; for 125I-Insulin specific binding (%), Solubilized endosomes / 125I-Insulin specific binding (%), WGA-purified endosomes: Table 2, normalized to endosomes without nucleotide. The procedure: Rats were anaesthetized with ether and were injected via jugular vein with a dose (per 100 g body weight) of insulin (1.5 μg), or bpV(phen) (0.6 μmol), dissolved in 0.2 ml. phosphate buffered saline (pH 7.4) −0.1% BSA. […] Livers were rapidly excised, placed in ice-cold homogenizing buffer (50 mM HEPES (pH 7.4), 0.25 M sucrose, 1 mM PMSF, 1 MM MgCl2, 1 mM benzamidine) and minced before homogenization. […] These subcellular fractions have been characterized in detail both morphologically and biochemically.
After 10 min at room temperature, the reactions was terminated by spotting 50 μl aliquots on Whatman 3 MM filters.
In the present study we wished to assess whether other processes might be involved in reducing the association of intraendosomal insulin with its receptor. We examined the effect of incubating intact ENs containing IR with increasing concentrations of ATP on subsequently measured insulin and hGH binding in both solubilized and WGA-purified receptors.

In test [1] the target is T2, insulin receptor kinase (IRK) (Rattus norvegicus, UniProt P15127).
T2 construct: from tissue; host or cells: rat liver; endosome (EN) and plasma membrane (PM) fractions
The test can be described thus: Insulin receptor kinase (IRK) exogenous tyrosine kinase activity, Poly (Glu:Tyr) (4:1) substrate, WGA-purified IRK from preincubated cell fractions. In kind it is biochemical. The following applies: for IRK activity of ENs containing IR (FIG. 1A): versus absence of ATP.

For test [2], the target named is T3, insulin receptor kinase (IRK) β-subunit (Rattus norvegicus, UniProt P15127).
T3 construct: from tissue; host or cells: rat liver; endosome (EN) and plasma membrane (PM) fractions
Put plainly: 2-D phosphoamino acid analysis of the IRK β-subunit. In kind it is biochemical. The settings on record: ENs incubated with 1 or 5 mM γ-32P ATP, 15 min 37° C. The method, then: ENs containing IR were removed from the 0.6/1.0 M sucrose interface of the gradient used in endosomal purification, and diluted with 0.25 M sucrose to a final protein concentration of 50 μg/ml. A 30 ml aliquot was centrifuged at 200,000×gav for 40 mins prior to resuspending in 500 μl of cell-free system buffer (44 mM HEPES (pH 7.4), 0.55 M sucrose, 333 mM KCl, 11 mM NaCl, 11 mM MgCl2). Incubations were initiated by adding 500 μl of 10 mM Tricine buffer containing either 2 or 10 mM ATP at a specific activity of 0.5 mCi ^32P/mmol. After incubating for 15 min at 37° C. the reaction was stopped by adding an equal volume of ice-cold 20 mM HEPES, 0.25 M sucrose, 2 mM PMSF, 2 mM benzamidine, 4 mM Na orthovanadate and 80 mM Na fluoride. […]
Previous work has shown that serine/threonine phosphorylation of the β-subunit of the IRK results in an inhibition of IRK activity. We thus determined if incubating ENs containing IR with 5 mM ATP promotes the phosphorylation of IRK on serine and threonine residues. […]

Test [3] deals with T2, insulin receptor kinase (IRK). The test can be described thus: DTT-dependent reduction of endosomal IRK heterotetramer (non-reducing SDS-PAGE). The format is biochemical. The following applies: ENs incubated with 5 mM ATP, 10 mM DTT, 15 min 37° C. The procedure: Endosomal pellets containing IR were resuspended (500 μg protein/ml) in a final concentration of 50 mM Tris (pH 6.9), 10% glycerol and 20 mM N-ethylmaleimide. Samples were incubated at room temperature for 5 mins and then solubilized without heating in 2.3% SDS-0.05% bromophenol blue before subjecting to SDS-PAGE in the absence of reductants (Faure et al. ([…]) J. Biol. Chem. 267, 11215-11221).
The above observation raised the possibility that intraluminal events were responsible for deactivation of the endosomal IRK. This led us to investigate whether there might be a conformational change in the IRK consequent to ATP-dependent acidification. To probe this possibility we incubated ENs containing IR with ATP in the presence or absence of 10 mM DTT to assess the ease with which Type I disulfide bonds might be reduced in the heterotetrameric molecule ([…]). […] Hepatic ENs containing IR were prepared 2 mins after insulin injection (1.5 μg/100 g body weight) and were incubated for 15 min at 37° C. in the absence or presence of 10 mM DTT and 5 mM ATP. The ENs were centrifuged and the pellets resuspended and treated as described above. Samples were applied without heating to SDS-PAGE (gradient resolving gel, 3-10% acrylamide) in the absence of reductant. […]

Entries after “also recorded” stand apart in the source; their conditions may differ.

T2 sequence (P15127 27-759 limits assumed): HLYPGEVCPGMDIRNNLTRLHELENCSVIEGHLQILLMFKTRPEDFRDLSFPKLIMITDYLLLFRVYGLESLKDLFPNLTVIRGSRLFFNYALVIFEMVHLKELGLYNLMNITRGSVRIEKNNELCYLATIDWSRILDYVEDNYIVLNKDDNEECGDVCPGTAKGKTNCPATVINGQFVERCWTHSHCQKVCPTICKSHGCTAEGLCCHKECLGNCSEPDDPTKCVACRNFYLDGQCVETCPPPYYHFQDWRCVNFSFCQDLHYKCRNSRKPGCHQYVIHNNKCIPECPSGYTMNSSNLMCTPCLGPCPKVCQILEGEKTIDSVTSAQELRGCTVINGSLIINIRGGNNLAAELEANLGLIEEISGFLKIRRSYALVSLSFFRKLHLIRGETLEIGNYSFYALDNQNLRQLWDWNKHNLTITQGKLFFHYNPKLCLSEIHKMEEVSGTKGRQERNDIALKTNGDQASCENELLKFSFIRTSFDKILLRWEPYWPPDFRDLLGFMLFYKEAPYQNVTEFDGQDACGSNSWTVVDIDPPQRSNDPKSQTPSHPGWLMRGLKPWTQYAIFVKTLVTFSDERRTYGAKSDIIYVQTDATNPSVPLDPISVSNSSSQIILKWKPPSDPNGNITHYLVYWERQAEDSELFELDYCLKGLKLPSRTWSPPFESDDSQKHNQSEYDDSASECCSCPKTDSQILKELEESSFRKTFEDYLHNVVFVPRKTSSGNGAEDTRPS
T2 sequence (P15127 764-1383 limits assumed): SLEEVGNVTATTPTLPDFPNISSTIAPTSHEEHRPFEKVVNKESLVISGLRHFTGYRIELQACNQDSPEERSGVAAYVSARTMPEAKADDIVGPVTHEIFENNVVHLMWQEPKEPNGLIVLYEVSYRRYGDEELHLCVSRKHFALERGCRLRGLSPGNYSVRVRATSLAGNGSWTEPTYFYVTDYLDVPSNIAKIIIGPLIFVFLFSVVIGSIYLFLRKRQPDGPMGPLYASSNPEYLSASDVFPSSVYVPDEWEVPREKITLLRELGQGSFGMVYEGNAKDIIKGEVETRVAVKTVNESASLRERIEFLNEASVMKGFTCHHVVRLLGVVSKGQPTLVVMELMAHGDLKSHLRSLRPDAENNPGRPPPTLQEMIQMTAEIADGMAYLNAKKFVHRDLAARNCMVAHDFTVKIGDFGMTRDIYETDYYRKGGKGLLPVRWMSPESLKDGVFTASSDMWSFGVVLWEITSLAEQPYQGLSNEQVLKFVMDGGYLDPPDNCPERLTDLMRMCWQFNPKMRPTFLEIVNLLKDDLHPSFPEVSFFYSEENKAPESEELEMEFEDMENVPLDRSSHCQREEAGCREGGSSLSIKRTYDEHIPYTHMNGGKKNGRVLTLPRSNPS
T1 sequence (P15127 27-759 limits assumed): as the sequence (P15127 27-759 limits assumed) above
T1 sequence (P15127 764-1383 limits assumed): as the sequence (P15127 764-1383 limits assumed) above
T3 sequence (P15127 27-759 limits assumed): as the sequence (P15127 27-759 limits assumed) above
T3 sequence (P15127 764-1383 limits assumed): as the sequence (P15127 764-1383 limits assumed) above

Take `Nc1ncnc2c1ncn2[C@@H]1O[C@H](COP(=O)(O)OP(=O)(O)OP(=O)(O)O)[C@@H](O)[C@H]1O` [ATP, adenosine 5′triphosphate]: the “125I-insulin specific binding, WGA-purified endosomes” value on insulin receptor (ATP 0.1 mM, percent of control) is given as 107.7 ± 1.5%; at insulin receptor (ATP 1 mM, percent of control) it was 123.9 ± 6.2%; on insulin receptor (ATP 3 mM, percent of control), 99.3 ± 0.9%; at insulin receptor (ATP 5 mM, percent of control), 52.1 ± 1.2%; on insulin receptor (ATP 10 mM, percent of control) it was 8.4 ± 0.2%. In addition, the “125I-insulin specific binding, solubilized endosomes” value on insulin receptor (ATP 0.1 mM, percent of control ENs without ATP) is 103.6 ± 2.5%; at insulin receptor (ATP 1 mM, percent of control) it was 90.9 ± 4.2%; on insulin receptor (ATP 3 mM, percent of control) it was 96.7 ± 2.6%; at insulin receptor (ATP 5 mM, percent of control) it was 84.2 ± 2.7%. In addition, the “125I-Insulin specific binding (%), Solubilized endosomes” value was found to be 103.4 ± 2.5% on insulin receptor (addition 0.1 mM, 37° C. 15 min); 95.5 ± 14.2% on insulin receptor (addition 1 mM, 37° C. 15 min); 112.0 ± 3.3% at insulin receptor (addition 10 mM at 4° C. (on ice)); 43.6 ± 6.3% at insulin receptor (addition 10 mM, 37° C. 15 min). Also, the “125I-Insulin specific binding (%), WGA-purified endosomes” value at insulin receptor (addition 0.1 mM, 37° C. 15 min) is given as 108.1 ± 2.0%; on insulin receptor (addition 1 mM, 37° C. 15 min), 92.2 ± 2.2%; at insulin receptor (addition 10 mM, 37° C. 15 min), 25.2 ± 5.2%. For the same molecule, the “IRK activity of ENs containing IR (FIG. 1A)” value in test [1] (5 mM ATP, 15 min 37° C.) was “marked decrease”; in test [1] (0.1 and 1.0 mM ATP, 15 min 37° C.), “increase”. The “IRK activity of ENs containing IR” value in test [1] (10 mM ATP, 15 min 37° C.) is on record as “virtually abolished; also recorded: suppressed IRK activity completely”. Moreover, in test [1] (PM containing IR preincubated with ATP (1 and 10 mM), 15 min 37° C.), the “Activity of WGA-purified IRK from plasma membrane (PM) (FIG. 3A)” value is given as “augmentation of activity”. The “IRK activity after sequential incubations (FIG. 7B)” value in test [1] (preincubation 1 mM ATP 15 min, second incubation 5 mM ATP) is “marked reduction”. Moreover, the “IRK activity after sequential incubations” value in test [1] (sequential incubations in 1 mM ATP) is “no deleterious effect”. The “32P phosphoserine in IRK β-subunit (FIG. 5)” value in test [2] is given as “no detectable”. The “Ability of DTT to reduce tetrameric IRK molecules (FIG. 8)” value in test [3] is listed as “significantly decreased”.
